Patent US20110003844A1, “REGULATION OF CARDIAC CONTRACTILITY AND HEART FAILURE PROPENSITY” (Children's Hospital Medical Center, priority 2003, published 2011)
“Also recorded” adds a separate entry of the source. Read-outs that look alike come from different tables or passages of the source.

Key:
[1] = system: PKC isoforms; conditions: cited from earlier work
[2] = system: wildtype mouse hearts; test: ex vivo working heart preparation, acute PMA infusion, wildtype hearts
Protocol: (§1) Hearts were isolated from four wild-type and four PKCα −/− (PKCα null) transgenic mice. The isolated hearts were infused with PMA at 9 different concentrations ranging from 8×10^−11 through 8×10^−7 M. Acute PMA infusion of each concentration occurred for a 7 minute period. The hearts were measured for maximal and minimal dP/dt in systole and diastole respectively.

[3] = system: isolated ventricular myocytes from adult rats; conditions: 10^−7 M, 1 Hz, 1 mM calcium; cited from earlier work
[4] = system: isolated chicken ventricular myocytes; conditions: 1 μM drug; cited from earlier work
[5] = system: isolated cardiac myocytes and whole guinea-pig hearts; conditions: cited from earlier work
[6] = system: PKCα−/− hearts; test: ex vivo working heart preparation, acute PMA infusion, PKCα null hearts; design: species or system mouse
Protocol: as §1

[7] = target: T1, PKCα (Rattus norvegicus, UniProt P05696); test: confocal immunohistochemistry of PKCα localization in adult cardiomyocytes; format: cell-based; conditions: adult rat cardiomyocytes in culture, acute PMA stimulation
T1 construct: confocal micrographs of PKCα protein localization in adult rat cardiac myocytes at baseline (PKCα) or after PMA; endogenous in cells; host or cells: adult rat cardiomyocytes in culture

[8] = system: PKCα-GFP; test: translocation of PKCα-GFP indicator polypeptide, confocal microscopy; format: cell-based; conditions: neonatal rat cardiomyocytes, PMA 60 minutes
Protocol: A PKCα indicator was prepared by operably linking a nucleotide sequence encoding PKCα to a nucleotide sequence encoding green fluorescence protein (GFP). An expression cassette comprising the PKCα-GFP nucleotide sequence was prepared. Adenovirus comprising the PKCα-GFP expression cassette was prepared.
Neonatal rat cardiomyocytes were cultured in plastic dishes and incubated until the appropriate density was reached. The cardiomyocytes were infected with an adenovirus encoding PKCα-GFP. The cultures were incubated for 24 hours. After 24 hours the cells were incubated with either DMSO alone (the vehicle treatment) or DMSO and PMA for 60 minutes. The cells were fixed and examined by confocal microscopy.

[9] = system: normal Sprague-Dawley and Lewis rats; test: in vivo cardiac contractility and hemodynamics in anesthetized normal rats; design: species or system rat
Protocol: Selected PKCα inhibitors are evaluated in both naive rats and rats with myocardial infarction (MI) for effects on cardiac contractility and hemodynamics. The effects of inhibitors on cardiac contractility and hemodynamics are evaluated in naïve and MI rats as follows. The animals are anesthetized with isoflurane. A femoral artery is isolated and cannulated for the measurement of systemic blood pressure. A jugular vein is isolated and cannulated for the intravenous infusion of inhibitor. The right carotid artery is isolated and a Millar conductance catheter is inserted to the left ventricle (LV) of the heart. The LV systolic pressure, end-diastolic pressure, +maximum dP/dt, −minimum dP/dt, and heart rate are derived from the LV pressure waveform. Mean arterial blood pressure is derived from the systemic blood pressure waveform. Data are recorded continuously and derived using computerized data acquisition software (Notocord or Powerlab). After a period of stabilization, PKCα inhibitors are infused at the following infusion doses in naïve rats: 0.1, 0.3, 1.0, 3.0, 10, 30, 100, 300 and 1000 nmol/kg/min. The infusion of each dose is allowed to run for at least five minutes. In MI rats, the infusion doses are as follows: 10, 30, 100, 300, and 1000 nmol/kg/min for at least five minutes. Equivalent infusion volumes are administered to separate, vehicle-control naïve and MI animals. At the end of the test infusions, 5.0 μg/kg/min of dobutamine is infused.

[10] = system: MI rats; test: in vivo cardiac contractility in anesthetized rats with myocardial infarction; design: species or system rat
Protocol: Selected PKCα inhibitors are evaluated in both naive rats and rats with myocardial infarction (MI) for effects on cardiac contractility and hemodynamics.
Male, Sprague-Dawley or Lewis rats weighing between 225-500 gm are anesthetized with isoflurane and an MI is induced as follows. A thoracotomy at the fourth or fifth intercostal space is done, the heart is exposed and the pericardium is opened. A 5-0 suture is placed around the left descending coronary artery 2-4 mm from its origin and permanently tied. The ribs, muscle and skin are separately closed and the animal is allowed to recover. Twenty to twenty-three weeks after surgery the animals are used to evaluate the effects of PKCα inhibitors on cardiac contractility and hemodynamics.
The effects of inhibitors on cardiac contractility and hemodynamics are evaluated in naïve and MI rats as follows. The animals are anesthetized with isoflurane. A femoral artery is isolated and cannulated for the measurement of systemic blood pressure. A jugular vein is isolated and cannulated for the intravenous infusion of inhibitor. The right carotid artery is isolated and a Millar conductance catheter is inserted to the left ventricle (LV) of the heart. […] Data are recorded continuously and derived using computerized data acquisition software (Notocord or Powerlab). […]

[11] = system: adult wildtype mouse hearts; test: ex vivo working heart preparation, Ro-32-0432 infusion
Protocol: Mice from all genotypes or treatment groups were anesthetized with isoflurane, and echocardiography was performed using a Hewlett Packard 5500 instrument with a 15-MHZ microprobe. Echocardiographic measurements were taken on M-mode in triplicate from four separate mice per group. The isolated ejecting mouse heart preparation used in the present study has been described in detail previously (Gulick et al. (1997) Circ. Res. 80:655-664), as was the close-chested working heart model employed here (Lorenz et al. (1997) Am. J. Physiol. 272:H1137-H1146).
The relatively selective PKCα/β inhibitory compound Ro-32-0432 [2-{8-[(Dimethylamino)methyl]-6,7,8,9-tetrahydropyrido[1,2-a]indol-3-yl}-3-(1-methylindol-3-yl)maleimide, HCl Salt] [3-{8-[(Dimethylamino)methyl]-6,7,8,9-tetrahydropyrido[1,2-a]indol-10-yl}-4-(1-methylindol-3-yl)-1H -pyrrole-2,5-dione, HCl Salt] was used as a means of directly examining the effects of acute PKCα inhibition on cardiac function and contractility using an ex vivo working heart preparation. The working heart preparation separates the inherent pump function of the heart from potential alterations in total vascular resistance as might occur if the drug were infused in vivo.
Working adult wildtype mouse hearts were infused with vehicle control (10% DMSO) or Ro-32-0432 in 10% DMSO at concentrations ranging between 4×10^−10 through 4'10^−6M. Four animals were analyzed in the Ro-32-0432 group and compared with three animals in the vehicle control group. […] The average heart rate of the vehicle and drug treated groups was 351+/=3 and 292+/−6 beats per minute, respectively. […] The approximate 20% change in acute contractile performance in the Ro-32-0432 treated group is similar to the increase in cardiac function observed in PKCα null mice.

[12] = 1000 nmol/kg/min i.v. infusion, 5 min, n=3

## CNC[C@@H]1CCn2cc(c3ccccc32)C2=C(C(=O)NC2=O)c2cn(c3ccccc23)CCO1 [LY338522]
[1]
  inhibition of the PKC isoforms: effective in inhibiting the PKC isoforms

## CCCCCCCCCCCCCC(=O)O[C@@H]1[C@@H](C)[C@@]2(O)[C@@H](C=C(CO)C[C@]3(O)C(=O)C(C)=C[C@@H]23)[C@@H]2C(C)(C)[C@]12OC(C)=O [PMA, phorbol myristate acetate]
[2]; 8×10^−11 through 8×10^−9 M
  contractile performance (Maximum dP/dt or Minimum dP/dt): essentially no effect
[2]; concentrations higher than 8×10^−9 M
  functional performance: marked decrease in functional performance
[3]
  twitch amplitude, of control: approximately 60%
[4]
  maximum decrease in the amplitude of cell shortening: 54%
[5]; 10^−12 M PMA
  inotropic response: significant positive inotropic response
[5]; concentrations higher than 10^−10 M PMA
  inotropic response: negative inotropic response
[6]; highest concentrations of PMA
  functional performance: only a mild depression in functional performance
[6]; low doses of PMA
  inotropic effect: immediate positive inotropic effect
[7]
  PKCα protein localization: rapid translocation
[8]
  PKCα-GFP localization: highly localized and punctate staining pattern; also recorded: robust redistribution of PKCα-GFP

## CN(C)C[C@@H]1CCn2cc(c3ccccc32)C2=C(C(=O)NC2=O)c2cn(c3ccccc23)CCO1 [LY333531]
[9]; [12]
  maximum dP/dt increase compared to baseline: 28%
  minimum dP/dt increase compared to baseline: 17%
[9]; 1000 nmol/kg/min, baseline 315±17, not statistically significant
  heart rate: 294±8 beats per minute

## [H]/N=C(/N)SCCCn1cc(C2=C(c3cn(C)c4ccccc34)C(=O)NC2=O)c2ccccc21 [Ro-31-8220]
[10]; dobutamine 5.0 μg/kg/min for 5 minutes
  inotropic benefit compared with dobutamine: greater than that seen with dobutamine
[10]; dose dependent i.v. infusion 10-1000 nmol/kg/min, significance (P<0.05) at 300 nmol/kg/min, n=4
  percent increase in maximum dP/dt from baseline: 21%

## 2-{8-[(Dimethylamino)methyl]-6,7,8,9-tetrahydropyrido[1,2-a]indol-3-yl}-3-(1-methylindol-3-yl)maleimide, HCl Salt [Ro-32-0432]
[11]; Ro-32-0432 treated group, similar to PKCα null mice
  change in acute contractile performance: ~20%
[11]; during infusion, 295+/−26 before treatment
  average heart rate of drug treated group: 292+/−6 beats per minute
[11]; infused at 4×10^−10 to 4×10^−6 M, 7 min per concentration, values summated, average dosage approx 1×10^−8 M, P<0.05
  increase in acute contractile function, measured as maximum dP/dt: 20%
[11]; infused at 4×10^−10 to 4×10^−6 M, values summated, average dosage approx 1×10^−8 M, P<0.05
  increase in left ventricular pressure developed: 20%
[11]; infusion vs baseline, p<0.05
  acute cardiac contractility upon infusion (FIG. 38): statistically significant increase
